Assays:
[1] = tested on: HIV-1IIIB; experiment: HIV-1 antiviral assay (CPE reduction, MTS staining); assay type: cell-based; conditions: test peptide 10 micrograms per ml; 6 days post-infection; triplicate
[2] = tested on: Pseudomonas aeruginosa; assay type: cell-based; conditions: 5 micrograms per ml
[3] = tested on: Streptococcus pneumoniae; assay type: cell-based; conditions: 5 micrograms per ml
[4] = tested on: MRSA; conditions: 5 micrograms per ml
[5] = in vitro; conditions: human, CEM-SS cells (uninfected, cells plus peptide only)
[6] = in vitro; conditions: human, MRC-5 cells (embryonal lung fibroblasts)
[7] = Cytotoxicity in the HBV assay (dye uptake cell viability); conditions: human

For `Cc1cn([C@H]2C[C@H](N=[N+]=[N-])[C@@H](CO)O2)c(=O)[nH]c1=O` [AZT], the “% CPE reduction in HIV-1 infected CEM-SS cells” value [1] was 99%.

With `CC[C@H](C)[C@H](NC(=O)[C@H](Cc1ccccc1)NC(=O)[C@H](CCC(=O)O)NC(=O)[C@H](CCCCN)NC(=O)[C@H](C)NC(=O)[C@H](C)NC(=O)[C@H](CCC(N)=O)NC(=O)CNC(=O)[C@H](CCC(=O)O)NC(=O)[C@H](CC(C)C)NC(=O)[C@H](Cc1ccc(O)cc1)NC(=O)[C@H](CO)NC(=O)[C@H](CO)NC(=O)[C@@H](NC(=O)[C@H](CC(=O)O)NC(=O)[C@H](CO)NC(=O)[C@@H](NC(=O)[C@H](Cc1ccccc1)NC(=O)[C@@H](NC(=O)CNC(=O)[C@H](CCC(=O)O)NC(=O)[C@H](C)NC(=O)[C@H](Cc1c[nH]cn1)NC(=O)[C@H](CCCNC(=N)N)NC(=O)[C@H](CCC(=O)O)NC(=O)[C@H](Cc1ccccc1)NC(=O)[C@H](CCC(=O)O)NC(=O)[C@H](CC(=O)O)NC(=O)[C@@H](N)Cc1c[nH]cn1)[C@@H](C)O)[C@@H](C)O)C(C)C)C(=O)N[C@@H](C)C(=O)N[C@@H](Cc1c[nH]c2ccccc12)C(=O)N[C@@H](CC(C)C)C(=O)N[C@H](C(=O)N[C@@H](CCCCN)C(=O)NCC(=O)N[C@@H](CCCNC(=N)N)C(=O)NCC(=O)O)C(C)C` [GLP-1] the “% inhibition” value [2] was 0.0%, the “% inhibition” value [3] was 0.0% and the “% inhibition” value [4] was 0.0%. The viability at 10 micrograms per ml [5] was 100%, the viability at 144 h [6] was 100% and the viability at 144 h, 10 micrograms per ml [7] was 95.8%.
